Here are results for 21 compounds from ChEMBL document CHEMBL3351918 (Bioorg Med Chem, 2014).

One series deals with Butyrylcholinesterase (Rattus norvegicus, UniProt Q9JKC1). Nature of the series: Inhibition of BChE in rat serum using butyrylthiocholine iodide substrate incubated for 15 mins by UV spectroscopy based Ellman's method. Type of series: cell-free. A general note: Ellman's reagent forms a yellow product with free thiols.
The target of series [1] is T1, Acetylcholinesterase (Rattus norvegicus, UniProt P37136).
T1 sequence (P37136 whole entry): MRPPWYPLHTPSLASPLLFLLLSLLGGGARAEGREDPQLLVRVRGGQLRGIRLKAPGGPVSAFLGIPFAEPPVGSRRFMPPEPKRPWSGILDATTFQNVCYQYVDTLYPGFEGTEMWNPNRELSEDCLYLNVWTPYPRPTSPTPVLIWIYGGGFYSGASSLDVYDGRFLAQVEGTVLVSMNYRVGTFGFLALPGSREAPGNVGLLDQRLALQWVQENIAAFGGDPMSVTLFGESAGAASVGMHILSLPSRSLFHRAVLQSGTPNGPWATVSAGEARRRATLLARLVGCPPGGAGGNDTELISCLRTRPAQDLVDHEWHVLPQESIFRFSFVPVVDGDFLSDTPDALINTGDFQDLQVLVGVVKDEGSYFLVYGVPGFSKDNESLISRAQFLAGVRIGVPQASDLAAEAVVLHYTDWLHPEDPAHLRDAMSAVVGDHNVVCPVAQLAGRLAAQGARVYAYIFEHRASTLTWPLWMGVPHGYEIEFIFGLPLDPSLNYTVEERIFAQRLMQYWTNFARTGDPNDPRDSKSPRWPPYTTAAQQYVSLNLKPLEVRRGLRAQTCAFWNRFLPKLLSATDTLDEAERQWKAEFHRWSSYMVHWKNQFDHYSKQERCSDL
Nature of the series: Inhibition of AChE in rat cortex homogenates using acetylthiocholine iodide substrate incubated for 15 mins by UV spectroscopy based Ellman's method.

Series [2] deals with Amyloid-beta precursor protein (Homo sapiens) (UniProt P05067). Briefly: Inhibition of Amyloid beta (1 to 40) (unknown origin) assessed as self-mediated fibril formation at 50 uM incubated for 48 hrs by transmission electron microscopy.
For series [3], the target named is Butyrylcholinesterase (Rattus norvegicus) (UniProt Q9JKC1). Briefly: Potency index, ratio of IC50 for rivastigmine to IC50 for test compound against BChE in rat serum using butyrylthiocholine iodide substrate incubated for 15 mins by UV spectroscopy based Ellman's method. Type of series: cell-free.
The target of series [4] is T1, Acetylcholinesterase. Briefly: Prodrug activation in rat cortex homogenates assessed as AChE-mediated 2-methoxy-4-(piperidin-1-ylmethyl)phenol formation at 1 mmol after 24 hrs by HPLC-MS method. Particulars: tissue homogenate.
Series [5] has as its target T1, Acetylcholinesterase. Nature of the series: Retention time in rat cortex homogenates at 1 mmol after 24 hrs by HPLC-MS method. It is filed as ADME. To be noted: tissue homogenate.
Series [6] is described as follows: Antioxidant activity assessed as ABTS radical cation scavenging activity. It is filed as physicochemical.
For series [7], the target named is T1, Acetylcholinesterase. Nature of the series: Prodrug activation in rat cortex homogenates treated with 1 mmol 2-Methoxy-4-(piperidin-1-ylmethyl)phenyl dimethylcarbamate assessed as AChE-mediated compound formation after 24 hrs by HPLC-MS method. It is filed as ADME. To be noted: tissue homogenate.
Series [8] is described as follows: Metal chelating activity assessed as inhibition of copper-mediated Amyloid beta (1 to 40) aggregation at 50 uM after 48 hrs by transmission electron microscopy. Type of series: physicochemical.

Calls of active or inactive are those of the source. The rule behind the calls is not given here.

Chain of Amyloid-beta precursor protein (Homo sapiens) (P05067 whole entry): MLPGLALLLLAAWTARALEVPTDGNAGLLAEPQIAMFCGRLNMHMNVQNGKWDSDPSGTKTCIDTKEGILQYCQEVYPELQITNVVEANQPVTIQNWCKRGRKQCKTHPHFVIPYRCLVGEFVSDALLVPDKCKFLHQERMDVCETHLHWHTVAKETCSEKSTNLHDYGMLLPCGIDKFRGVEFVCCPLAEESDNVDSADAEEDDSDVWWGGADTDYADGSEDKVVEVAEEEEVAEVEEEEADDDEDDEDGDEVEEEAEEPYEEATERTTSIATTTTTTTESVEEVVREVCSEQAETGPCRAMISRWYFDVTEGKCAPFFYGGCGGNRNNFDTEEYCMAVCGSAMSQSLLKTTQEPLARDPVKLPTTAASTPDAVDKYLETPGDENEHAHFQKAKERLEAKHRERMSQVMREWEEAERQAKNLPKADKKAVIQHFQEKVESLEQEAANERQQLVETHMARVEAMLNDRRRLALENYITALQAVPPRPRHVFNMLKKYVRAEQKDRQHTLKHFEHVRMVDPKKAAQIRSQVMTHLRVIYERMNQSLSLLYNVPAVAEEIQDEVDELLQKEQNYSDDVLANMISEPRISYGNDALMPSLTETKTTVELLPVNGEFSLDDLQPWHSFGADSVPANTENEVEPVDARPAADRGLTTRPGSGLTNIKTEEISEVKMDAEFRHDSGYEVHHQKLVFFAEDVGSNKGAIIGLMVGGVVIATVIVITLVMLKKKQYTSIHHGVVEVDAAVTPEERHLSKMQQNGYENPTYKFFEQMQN
Chain of Butyrylcholinesterase (Q9JKC1 whole entry): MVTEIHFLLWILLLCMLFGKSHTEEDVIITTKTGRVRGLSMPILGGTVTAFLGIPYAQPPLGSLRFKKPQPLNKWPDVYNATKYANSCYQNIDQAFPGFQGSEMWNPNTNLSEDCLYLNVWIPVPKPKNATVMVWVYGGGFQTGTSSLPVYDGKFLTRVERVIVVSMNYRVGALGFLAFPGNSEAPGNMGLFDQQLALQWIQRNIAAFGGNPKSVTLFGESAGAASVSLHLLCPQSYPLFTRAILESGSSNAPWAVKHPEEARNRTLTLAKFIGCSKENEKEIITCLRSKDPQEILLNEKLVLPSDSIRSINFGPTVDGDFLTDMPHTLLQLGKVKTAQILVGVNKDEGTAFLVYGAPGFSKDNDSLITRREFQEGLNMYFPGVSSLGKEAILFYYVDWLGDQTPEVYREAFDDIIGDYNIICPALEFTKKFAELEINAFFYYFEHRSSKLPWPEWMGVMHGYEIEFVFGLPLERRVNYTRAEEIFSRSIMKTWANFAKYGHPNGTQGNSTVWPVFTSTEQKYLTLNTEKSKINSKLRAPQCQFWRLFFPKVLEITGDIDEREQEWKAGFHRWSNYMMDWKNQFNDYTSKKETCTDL
Chain of Butyrylcholinesterase (Rattus norvegicus) (Q9JKC1 as listed by the source): as the sequence (Q9JKC1 whole entry) above

On to `COc1cc(CN2CCOCC2)ccc1OC(=O)N(C)C`, for which the IC50 (in general, the concentration that gives 50% inhibition) was determined as 430 nM at Butyrylcholinesterase and 1710 nM on Acetylcholinesterase [1].

In the case of `COc1cc(C(C)N2CCCC2)ccc1OC(=O)N(C)C` (stereo not given), the IC50 against Butyrylcholinesterase is 18 nM; at Acetylcholinesterase [1] it was 190 nM.

Consider `COc1cc(C(C)N2CCCCC2)ccc1OC(=O)N(C)C` (stereo not given), for which the IC50 on Butyrylcholinesterase came out at 8 nM; against Acetylcholinesterase [1] it was 110 nM. Further, the inhibition result in series [2] was “Active”. In addition, in series [3], the Ratio IC50 amounted to 40.

Turning to `CCN(CC)C(C)c1ccc(OC)c(OC(=O)N(C)C)c1` (stereo not given), the IC50 against Butyrylcholinesterase came out at 130 nM; against Acetylcholinesterase [1] it was 2770 nM.

As for `COc1ccc(C(C)N2CCOCC2)cc1OC(=O)N(C)C` (stereo not given), the IC50 turned out to be 270 nM on Butyrylcholinesterase and 23300 nM on Acetylcholinesterase [1].

As for `CCN(CC)Cc1ccc(OC(=O)N(C)C)c(OC)c1`, the IC50 turned out to be 35 nM against Butyrylcholinesterase and 110 nM on Acetylcholinesterase [1].

`COc1ccc(C(C)N2CCCCC2)cc1OC(=O)N(C)C` (stereo not given): the IC50 is 34 nM at Butyrylcholinesterase and 1420 nM against Acetylcholinesterase [1].

Turning to `COc1cccc(CN2CCCCC2)c1OC(=O)N(C)C`, the IC50 against Butyrylcholinesterase turned out to be 3130 nM; on Acetylcholinesterase [1] it was 22700 nM.

On to `COc1ccc(CN2CCCC2)cc1OC(=O)N(C)C`, for which the figures for the IC50 on Butyrylcholinesterase and at Acetylcholinesterase [1] were 29 nM and 2870 nM, respectively.

For `COc1ccc(CN2CCCCC2)cc1OC(=O)N(C)C`, the figures for the IC50 against Butyrylcholinesterase and on Acetylcholinesterase [1] were 10 nM and 660 nM, respectively. For the same compound, the inhibition result in [2] was “Active”. In addition, in [3], the Ratio IC50 is 40.

For `COc1cc(CN2CCCC2)ccc1OC(=O)N(C)C`, the values for the IC50 at Butyrylcholinesterase and against Acetylcholinesterase [1] were 12 nM and 130 nM, respectively.

On to `COc1cc(CN2CCCCC2)ccc1OC(=O)N(C)C`, for which the IC50 against Butyrylcholinesterase worked out at 24 nM; against Acetylcholinesterase [1], 97 nM. The inhibition entry in series [2] was “Active”. In addition, the Drug metabolism entry on Acetylcholinesterase [4] was “metabolite_detected”. The compound further displayed a Retention_time on Acetylcholinesterase [5] of 6.84 min.

For the compound `COc1cc(C(C)N2CCOCC2)ccc1OC(=O)N(C)C` (stereo not given), the IC50 is 310 nM against Butyrylcholinesterase and 4980 nM at Acetylcholinesterase [1].

Turning to `COc1ccc(C(C)N2CCCC2)cc1OC(=O)N(C)C` (stereo not given), the IC50 at Butyrylcholinesterase turned out to be 82 nM; on Acetylcholinesterase [1] it was 1920 nM.

Turning to `COc1ccc2[nH]cc(CCNC(C)=O)c2c1` [MELATONIN], in series [6], the IC50 was 1920 nM and the “inhibition (INH)” value is on record as “Dose-dependent effect”.

In the case of `CCN(CC)C(C)c1ccc(OC(=O)N(C)C)c(OC)c1` (stereo not given), the IC50 on Butyrylcholinesterase was 63 nM; against Acetylcholinesterase [1] it was 240 nM.

`COc1ccc(CN2CCOCC2)cc1OC(=O)N(C)C`: the values for the IC50 against Butyrylcholinesterase and on Acetylcholinesterase [1] were 120 nM and 20800 nM, respectively.

Turning to `COc1cc(/C=C/C(=O)CC(=O)/C=C/c2ccc(O)c(OC)c2)ccc1O`, in [2], the inhibition result was “Active”.

In the case of `COc1cc(CN2CCCCC2)ccc1O`, on Acetylcholinesterase [7], the Drug metabolism entry is on record as “metabolite_detected”. The “inhibition (INH)” value in [8] is “Active”. In addition, the Retention_time at Acetylcholinesterase [5] came out at 5.5 min. Also, in series [6], the IC50 turned out to be 2910 nM and the “inhibition (INH)” value is given as “Dose-dependent effect”.

Take `CCN(C)C(=O)Oc1cccc([C@H](C)N(C)C)c1`: the inhibition entry in series [2] is “inactive”.

On to `CCN(CC)Cc1ccc(OC)c(OC(=O)N(C)C)c1`, for which the concentration for half-maximal inhibition (IC50) came out at 79 nM at Butyrylcholinesterase and 1480 nM against Acetylcholinesterase [1].
